In patent publication US8138304B2, “Neural regeneration peptides and formulations thereof” (Neuren Pharmaceuticals Limited, priority 2005, dated 2012):
Where no end group is shown, it is not given here.

Legend:
[1] = tested on: human primary trophoblasts; assay: Trophoblast haptotactic migration (Boyden chamber) assay; assay type: cell-based; settings: 0.1 ng/ml coating, 100 fM in inserts; 22 hrs
Protocol: Human trophoblast cells were isolated from term placentas with prior approval by the Ethics Committee of the University of Auckland and consent of the patients. The maternal decidua was removed, exposing the villous interior of the placenta. Pieces of villous tissue were cut out and washed thoroughly with PBS before digestion using 0.25% trypsin. The digest was then diluted in Locke Ringers Buffer and DNAase I. Digestion of connective tissue surrounding the placental cells was carried out while stirring the mixture with a magnetic stirrer at a temperature of 37° C. The process was repeated 8 times, with the last 6 supernatants being collected in a bottle containing fetal bovine serum (FBS). The digestion step produced a heterogeneous dispersed cell preparation. The pooled supernates was centrifuged for 7 minutes at 1200 rpm. The cell pellet was resuspended in PBS and centrifuged. […]
Cells were then purified using a percoll gradient (5, 20, 30, 35, 40, 50 and 60%). […] This band was collected, the cells washed in M199 medium centrifuged and finally counted and plated according to the methods of Keelan et al, 1998. […]
Under control conditions, the bottom of the chamber is not pre-coated with a putative chemoattractive agent. […] Thus, the number of migratory cells can be quantified. […]

JAr cells = assay: TNF-alpha-induced cytotoxicity in immortalized trophoblast cell line; assay type: cell-based, human
Protocol: Choriocarcinoma cells (Jeg-3, BeWo and Jar; ATCC) were cultured under similar conditions in DMEM/F-12 cell culture medium in 75 cm2 flasks with filter tops (Raylab). Cells were allowed to adhere and grow in an incubator equilibrated in 95%/5% air/CO2 to approximately 70% confluence, before being split every 2 to 3 days by addition of 2 ml of 1× concentrated trypsin-EDTA. After a centrifugation step for 5 min at 1100 rpm, cells were resuspended in 15 ml of fresh DMEM/F-12 in sterile tissue flasks and placed back in the incubator.
In this study, we plated 50,000 JAr cells per well. JAr cells are an immortalized line of cells derived from a human choriocarcinoma cells. Wells were pre-incubated with NRP-5RG D6A (SEQ ID NO: 1) at the concentrations indicated in FIG. 12, or epidermal growth factor (EGF; 5 ng/ml) for 2 hours. Subsequently, cells were exposed to the cultures for 48 hours to TNF-alpha (5 ng/ml) and interferon-gamma (5 ng/ml) to induce stress.

[2] = tested on: primary human trophoblasts; assay: Trophoblast proliferation assay (BrdU incorporation); assay type: cell-based
Protocol: Cell proliferation was determined by BrdU incorporation to examine the effects of NRP-5RG D6A on the proliferation of trophoblasts. EGF (0.8×10^−9 M) was used as a positive control, since studies have previously shown it plays a role in enhancing trophoblast proliferation (Maruo et al., 1992).
Initially cells were treated with NRP-5RG D6A (SEQ ID NO: 1), EGF and BrdU (0.05 μM) for 72 hrs. After the first 24 hrs, an 80% media change was carried out since BrdU is toxic over long incubation periods. Following 72 hrs of incubation, the reaction was stopped by fixation in 4% PFA. However, with this experimental design, most trophoblasts would form syncytia by the end of the 72 hrs, hindering accurate examination of the proliferative effect of NRP-5RG D6A on trophoblasts. […] This allowed analysis of proliferation of mononuclear trophoblasts.
Cell proliferation was evaluated over 24 hrs after seeding 1.3×10^5 cells/cm^2 in culture media (1% serum) treated with 0.05 μM BrdU, NRP-5RG D6A and EGF (FIG. 13).

With “REGRRAAPGRAGG-NH2 (listed as Homo sapiens) [SEQ ID NO: 1, 13-mer NRP analogue]” the “increase of migratory cells” value [1] was 95%, the “rescue effect at further increased concentration” value (JAr cells; 1 nM) was “reduced rescue effect” and the “concentration at which a significant rescue effect was observed” value (JAr cells; 2 hours pre-incubation, TNF-alpha 5 ng/ml and interferon-gamma 5 ng/ml, 48 hours) was 10 fM. For the same substance, the “trophoblast proliferation compared to the control” value ([2]; 10^−13 M, 24 hrs, BrdU) was “no increase in proliferation”, the “increase in trophoblast proliferation” value ([2]; 10^−14 M, 24 hrs, BrdU) was 183.3±50.2% and the “trophoblast proliferation at other concentrations” value ([2]; any concentration other than 10^−14 M (higher concentrations, data not shown)) was “no proliferative effect”.
